Consider 13 compounds from patent publication US8927547B2, “Pyrimidine derivatives” (Noviga Research AB, priority 2010, dated 2015).

SMILES strings stand for the structures. Some results are limits rather than exact numbers.

What all share (format): cell-based
Test [1] deals with H69AR. The experiment in a line: FMCA, H69AR doxorubicin-resistant lung cancer. To be noted: Homo sapiens, read-out: EC50 (μM) in various cancer cell lines: H69 AR. An excerpt:
(§1) The Fluorometric Microculture Cytotoxicity Assay, FMCA, is a three day non-clonogenic microplate-based cell viability assay used for measurement of the cytotoxic and/or cytostatic effect of compounds in vitro (Lindhagen, E., et al. Nat Protoc, 2008. 3(8): p. 1364-9). FMCA (Larsson, R. and P. Nygren, Anticancer Res, 1989. 9(4): p. 1111-9) represents a valuable method to measure cytotoxicity in a number of cell types, both cell lines and primary cells from patients (Larsson, R., et al., Int J Cancer, 1992. 50(2): p. 177-85; Fridborg, H., et al., Eur J Cancer, 1999. 35(3): p. 424-32; Dhar, S., et al., Br J Cancer, 1996. 74(6): p. 888-96).
(§2) FMCA is based on the principle that fluorescein diacetate (FDA) is converted to the fluorescent probe fluorescein by esterases in the plasma membranes of living cells. For experiments, 96 or 384-well microplates are prepared with compounds and stored at −70° C. until use. Cells are then seeded into the drug-prepared plates and placed in an incubator for 72 h. On the last day of incubation, the plates are washed and a buffer containing FDA is added and incubated with the cells for 45 minutes. Finally the fluorescence per well is measured in a fluorometer and a Survival Index % (SI) for each compound-treated well is calculated with the equation: Compound-treated cells minus blank divided by control cells minus blank. A high SI-value indicates a large percentage of living cells and vice versa.
(§3) Compounds of the invention as well as kinase inhibitors sorafenib, sunitinib, dasatinib, and pazopanib (reference compounds) were diluted with PBS to a concentration which was ten-times higher than the desired starting concentration. Then, a Biomek 2000 liquid handling system was employed to serially dilute the compounds in a deep-well 384-well plate. From this plate, assay plates containing 5 μl compound per well were prepared with the Biomek 2000. Certain compounds precipitated when diluted with PBS, and these compounds were therefore prepared in a 96-well plate manually as described above using culture medium RPMI 1640 instead of PBS.
(§4) The compounds were also tested at five concentrations, with five times serial dilution on the following cell types: CCRF-CEM, hTERT-RPE1 (normal retinal epithelial cells), hRPTEpiC (normal renal cells) and PBMC (peripheral blood mononuclear cells). Each experiment was performed three times, except for PBMC and hRPTEpiC, which were performed twice. SI-values were calculated, graphs were plotted using GraphPadPrism 5.0 (GraphPad Software Inc. La Jolla, Calif.) and EC50-values for each cell type and compound were determined from the curves.
(§5) The compounds of the invention were also tested on further cancer cell lines related to colon cancer (HCT116; see e.g Brattain M G, et al. Cancer Res. 1981, 41, 1751-1756), breast cancer (MCF7; see e.g. Soule H D, et al. J. Natl. Cancer Inst. 1973, 51, 1409-1416), teniposide-resistant leukaemia (CEM/VM1; see e.g. Danks M K et al. Cancer Res. 1987, 47, 1297-1301), lung cancer (H69; see e.g. Gazdar A F, et al. Cancer Res. 1980, 40, 3502-3507), doxorubicin-resistant lung cancer (H69AR; see e.g. Mirski S E, et al. Cancer Res. 1987, 47, 2594-2598), myeloma (RPMI 8226; see e.g. Matsuoka Y, et al. Proc. Soc. Exp. Biol. Med. 1967, 125, 1246-1250), doxorubicin-resistant myeloma (8226/Dox40; see e.g. Dalton W S et al. Blood 1989, 15,747-752), lymphoma (U-937, see e.g. Sundstrom C, et al. Int. J. Cancer 1976, 17, 565-577), vincristin-resistant lymphoma (U-937-vcr; see e.g. Botling J, et al. Int J Cancer 1994, 15; 58 (2), 269-274), ovarian cancer (A2780; see e.g. Hamilton T C, et al. Semin Oncol. 1984, 11, 285-298), doxorubicin-resistant ovarian cancer (A2780/Adr), cisplatin-resistant ovarian cancer (A2780/Cis; see e.g. Behrens B C, et al. Cancer Res. 1987, 47, 414-418), renal cancer (ACHN; see e.g. Borden E C, et al. Cancer Res. 1982, 42(12), 4948-4953), pancreatic cancer (PANC-1, BxPC-3, and MIA PaCa-2; see e.g. Lieber M, et al. Int. […]

The test system of test [2] is U-937. The experiment in a line: FMCA, U-937 lymphoma. To be noted: Homo sapiens, read-out: EC50 (μM) in various cancer cell lines: U-937.
From the text: as §1, §2, §3, §4, §5

In test [3] the test system is HCT116. The experiment in a line: FMCA, HCT116 colon cancer. To be noted: Homo sapiens, HCT-116, read-out: EC50 (μM) in various cancer cell lines: HCT116.
From the text: as §1, §2, §3, §4, §5

Test [4] concerns CEM/VM1. The experiment in a line: FMCA, CEM/VM1 teniposide-resistant leukaemia. To be noted: Homo sapiens, read-out: EC50 (μM) in various cancer cell lines: CEM/VM1.
From the text: as §1, §2, §3, §4, §5

The test system of test [5] is 8226/Dox40. Description: FMCA, 8226/Dox40 doxorubicin-resistant myeloma. To be noted: read-out: EC50 (μM) in various cancer cell lines: 8226/Dox40.
From the text: as §1, §2, §3, §4, §5

Test [6] relates to MCF7. The experiment in a line: FMCA, MCF7 breast cancer. To be noted: Homo sapiens, read-out: EC50 (μM) in various cancer cell lines: MCF7.
From the text: as §1, §2, §3, §4, §5

In test [7] the test system is U-937-vcr. The experiment in a line: FMCA, U-937-vcr vincristin-resistant lymphoma. To be noted: read-out: EC50 (μM) in various cancer cell lines: U-937-ver.
From the text: as §1, §2, §3, §4, §5

Test [8] concerns A2780. Description: FMCA, A2780 ovarian cancer. To be noted: Homo sapiens, read-out: EC50 (μM) in various cancer cell lines: A2780.
From the text: as §1, §2, §3, §4, §5

The subject of test [9] is CCRF-CEM cancer cells - leukaemia. Description: Fluorometric Microculture Cytotoxicity Assay (FMCA), CCRF-CEM. To be noted: Homo sapiens, 72 h incubation.
From the text: as §1, §2
In subsequent experiments, compounds were tested, along with kinase inhibitors (dasatinib, pazopanib, sorafenib, and sunitinib) as described above. Initially, the acute lymphoblastic leukaemia cell line CCRF-CEM (see e.g. Foley G E, et al. Cancer 1965, 18, 522-529) was used throughout. In the assay plates, medium was added to six empty wells (blank wells) and wells were filled with PBS and cell suspension and served as control wells. SI-values were then calculated for each compound-treated well as described above. All experiments were conducted twice and a new batch of plates was prepared for each experiment.
For dose-response experiments, 384-well plates were prepared as follows:
as §3, §4

Test [10] concerns H69. The experiment in a line: FMCA, H69 lung cancer. To be noted: Homo sapiens, NCI-H69, read-out: EC50 (μM) in various cancer cell lines: H69.
From the text: as §1, §2, §3, §4, §5

Test [11] deals with RPMI 8226. The experiment in a line: FMCA, RPMI 8226 myeloma. To be noted: Homo sapiens, read-out: EC50 (μM) in various cancer cell lines: RPMI 8226.
From the text: as §1, §2, §3, §4, §5

For test [12], the system named is ACHN. Description: FMCA, ACHN renal cancer. To be noted: Homo sapiens, read-out: EC50 (μM) in various cancer cell lines: ACHN.
From the text: as §1, §2, §3, §4, §5

As to `COc1ccc2[nH]cc(CCNc3nccc(NCc4ccc5[nH]c(C)cc5c4)n3)c2c1` [Example 64, N^2-[2-(5-methoxy-1H-indol-3-yl)ethyl]-N^4-(2-methyl-1H-indol-5-ylmethyl)pyrimidine-2,4-diamine], the EC50 stood at 0.29 µM in [1]; 0.08 µM in [2]; 1.33 µM in test [3]; 0.05 µM in test [4]; 1.19 µM in test [5]; 2.33 µM in [6]. Also, the EC50 in [7] turned out to be 0.32 µM; in [8], 0.29 µM; in test [9], 50 nM; in test [10], 4.18 µM; in [11], 0.23 µM; in [12], 1.6 µM.
Consider `COc1ccc2[nH]cc(CCNc3nccc(NCc4ccc5[nH]ncc5c4)n3)c2c1` [Example 66, N^4-(1H-indazol-5-ylmethyl)-N^2-[2-(5-methoxy-1H-indol-3-yl)ethyl]pyrimidine-2,4-diamine], for which the EC50 was 0.64 µM in test [1]; 0.35 µM in [2]; 2.45 µM in [3]; 0.27 µM in test [4]; 10 µM in [5]; 3.35 µM in test [6]. For the same compound, the EC50 in test [7] was 0.99 µM; in [8] it was 0.78 µM; in test [9], 210 nM; in test [10] it was 11.6 µM; in [11], 1.83 µM; in [12], 3.32 µM.
For `Cc1cc2cc(Nc3ccnc(NCc4ccc5[nH]cnc5c4)n3)ccc2[nH]1` [Example 67, N^2-(1H-benzo[d]imidazol-5-ylmethyl)-N^4-(2-methyl-1H-indol-5-yl)pyrimidine-2,4-diamine], the EC50 in [1] was 0.71 µM; in test [2], 0.22 µM; in test [3], 2.47 µM; in [4], 0.33 µM; in test [5], 24.4 µM; in [6], 12.4 µM. The EC50 stood at 1.74 µM in test [7]; 1.37 µM in [8]; 210 nM in test [9]; 37.2 µM in test [10]; 5.01 µM in test [11]; 5.43 µM in test [12].
As for `c1cc(Nc2nccc(NCc3ccc4[nH]ccc4c3)n2)c2cn[nH]c2c1` [Example 76, N^4-(1H-indol-5-ylmethyl)-N^2-(1H-indazol-4-yl)pyrimidine-2,4-diamine], the EC50 was found to be 0.34 µM in test [1]; 0.19 µM in test [2]; 3.09 µM in [3]; 0.22 µM in [4]; 1.1 µM in test [5]; 3.08 µM in [6]. Further, the EC50 is 0.4 µM in test [7]; 0.34 µM in [8]; 230 nM in [9]; 12.7 µM in [10]; 0.7 µM in test [11]; 1.59 µM in test [12].
With `c1cc(Nc2ccc3[nH]ccc3c2)nc(NCc2ccc3[nH]ccc3c2)n1` [Example 82, N^2-(1H-indol-5-ylmethyl)-N^4-(1H-indol-5-yl)pyrimidine-2,4-diamine], in [9], the EC50 was 490 nM.
`Cc1cc(Nc2ccc3[nH]c(C)cc3c2)nc(NCc2ccc3[nH]ccc3c2)n1` [Example 83, N^2-(1H-indol-5-ylmethyl)-6-methyl-N^4-(2-methyl-1H-indol-5-yl)pyrimidine-2,4-diamine]: the EC50 in [9] was less than 10000 nM.
Take `COc1ccc2[nH]cc(CCNc3nc(C)cc(NCc4ccc5[nH]ccc5c4)n3)c2c1` [Example 84, N^4-(1H-indol-5-ylmethyl)-N^2-[2-(5-methoxy-1H-indol-3-yl)ethyl]-6-methylpyrimidine-2,4-diamine]: the EC50 in test [1] was found to be 0.35 µM; in [2], 0.21 µM; in test [3] it was 1.16 µM; in test [4] it was 0.19 µM; in test [5], 2.58 µM; in [6], 2.06 µM. The EC50 in test [7] amounted to 0.27 µM; in test [8], 0.33 µM; in test [9], 40 nM; in [10], 5.47 µM; in [11], 0.45 µM; in [12], 1.62 µM.
With `COc1ccc2[nH]cc(CCNc3nc(Cc4ccccc4)cc(NCc4ccc5[nH]ccc5c4)n3)c2c1` [Example 85, N^4-(1H-indol-5-ylmethyl)-6-benzyl-N^2-[2-(5-methoxy-1H-indol-3-yl)ethyl]pyrimidine-2,4-diamine], the EC50 in test [9] was less than 10000 nM.
Same read-out and setting: to `c1cc(Nc2ccc3[nH]cnc3c2)nc(NCc2ccc3[nH]ccc3c2)n1` [Example 95, N^2-(1H-indol-5-ylmethyl)-N^4-(1H-benzo[d]imidazol-5-yl)pyrimidine-2,4-diamine] belongs 900 nM.
The same measure, in the same setting: to `Cc1nc2cc(Nc3ccnc(NCc4ccc5[nH]ccc5c4)n3)ccc2[nH]1` [Example 96, N^2-(1H-indol-5-ylmethyl)-N^4-(2-methyl-1H-benzo[d]imidazol-5-yl)pyrimidine-2,4-diamine] belongs 680 nM; to `CNC(=O)c1cc(Oc2ccc(NC(=O)Nc3ccc(Cl)c(C(F)(F)F)c3)cc2)ccn1` [Ref. 1, sorafenib, reference compound], 8300 nM.
In the case of `CCN(CC)CCNC(=O)c1c(C)[nH]c(/C=C2\C(=O)Nc3ccc(F)cc32)c1C` [Ref. 2, sunitinib, reference compound], in test [9], the EC50 came to 14100 nM.
Regarding `Cc1nc(Nc2ncc(C(=O)Nc3c(C)cccc3Cl)s2)cc(N2CCN(CCO)CC2)n1` [Ref. 3, dasatinib, reference compound], the EC50 in test [9] amounted to 9700 nM.
